The subject of one data set is HT29 cells. In words: In vitro cytotoxicity, XTT assay, HT29. Type of data set: cell-based, human. As to conditions: for Selectivity index (SI), CC50 HT29 / IC50 trophozoites: ratio of CC50/IC50 between mammal cells and trophozoites. How it is done: (§1) The cytotoxicity of compounds was investigated on human cell lines Caco-2 (ATCC HTB-37) and HT-29 (ATCC HHTB-38), using a Cell Proliferation Kit II (XTT; St Louis, MO, USA) according to the manufacturer’s instructions. A cell suspension of 10^5 cells/mL was prepared in Dulbecco’s modified Eagle’s (DMEM); medium supplemented with 10% inactivated fetal bovine serum and 1% Penicillin/streptomycin (5000 U/mL), from confluent cultures, and […] portions of the suspension were added to the wells of 96-well plates. […] Solutions of the compound were prepared and sterilized as described in Section 3.4.1 of Materials and Methods. Then, 150 μL of two-fold serial dilutions of each of the compounds, starting at a concentration of 500 µM, in a culture medium at a concentration of 0.3% DMSO, were prepared in the plates. […] Each compound was assayed in triplicate via three independent experiments.

Data set [1] addresses T1, triosephosphate isomerase (TPI) (Giardia intestinalis, UniProt P36186).
T1 construct: His-tag (TEV-cleavable) (cleaved yes); made in house
Put plainly: Inactivation of recombinant TPI enzyme with compounds. In kind it is biochemical. As to conditions: for Loss (reduction) of TPI enzyme activity: 500 µM compound, 2 h at 37 °C. How it is done: The TPI from G. lamblia was expressed and purified. […] When the culture reached A600 = 0.8, it was induced using 0.4 mM IPTG and incubated overnight at 30 °C with shaking at 180 rpm. After the bacteria were collected by centrifugation (10,000× g, 15 min) and suspended in 40 mL of lysis buffer, pH 8.0 (50 mM Tris, 50 mM NaCl, 5 mM β-mercaptoethanol, and 1 mM phenylmethylsulfonyl fluoride). The bacterial suspension was disrupted by sonication and centrifuged at 9000× g for 1 h at 4 °C. Protein purification was performed by immobilized metal affinity chromatography (IMAC) using a Profinity Ni^2+ charged resin (Bio-Rad) previously reported by Enriquez-Flores et al.. The His-tag sequence was removed from the TIM by incubation with TEVP at a molar ratio of 30:1 (TPI/TEVP) at room temperature for 17 h in digestion buffer, pH 8.0 (50 mM Tris, 0.5 mM ethylene diamine tetraacetic acid (EDTA), and 1 mM dithiothreitol). The enzyme concentration was spectrophotometrically determined at 280 nm, and the enzyme was used immediately.
Enzyme activity of TPI was determined spectrophotometrically as described by monitoring the conversion of glyceraldehyde-3-phosphate (GAP) to dihydroxyacetone phosphate (DHAP). […] The standard reaction mixture contained 1 mM GAP, 0.2 mM NADH, and 0.9 units/mL of α-GDH in TE buffer (100 mM triethanolamine, 10 mM EDTA, pH 7.4). The reaction was initiated by adding 5 ng/mL of TPI to the reaction mixture.
(§2) To determine the inactivation of the TPI enzyme from G. lamblia, we performed inactivation assays of the enzyme in the presence of the synthesized compounds. The compounds’ stock solutions were freshly prepared using 100% dimethyl sulfoxide (DMSO) as the solvent at 25 mM. […] After the incubation period, the enzymatic activity was measured by withdrawing an aliquot of each experimental condition, as described above. The results were expressed in terms of the percentage of activity versus the compound’s concentration.

In data set [2] the target is T1, triosephosphate isomerase (TPI). Put plainly: Second-order inactivation constant (k2) of TPI. In kind it is biochemical, Giardia lamblia. As to conditions: read-out: Second-order inactivation constant k2. How it is done: Enzyme activity of TPI was determined spectrophotometrically as described by monitoring the conversion of glyceraldehyde-3-phosphate (GAP) to dihydroxyacetone phosphate (DHAP). Briefly, the conversion of GAP to DHAP using a coupling system with enzyme α-glycerol-3-phosphate dehydrogenase (α-GDH) was determinate by measuring NADH oxidation at 340 nm, at 25 °C. The standard reaction mixture contained 1 mM GAP, 0.2 mM NADH, and 0.9 units/mL of α-GDH in TE buffer (100 mM triethanolamine, 10 mM EDTA, pH 7.4). The reaction was initiated by adding 5 ng/mL of TPI to the reaction mixture.
as §2, with “mM. The inactivation assays were performed by incubating 0.2 mg/mL of the TPI enzyme for 2 h at 37 °C in TE buffer with increasing concentrations of the compounds (0 to 500 μM).” for “mM.”
The second-order rate constants of inactivation were calculated by obtaining the pseudo-first-order rate constant (k1) values at each fixed concentration by fitting them to an exponential decay curve. Then, the k1 values were replotted against the concentrations of each compound; the second-order rate constant value of inactivation was obtained from the slope of these plots.

A short description of data set [3]: In vitro cytotoxicity, XTT assay, HT29. Conditions: human, HT-29 cells; for viability at 48 h, 500 µM: read-out: Viability of HT-29 cells (lowered to); for CC50 at 48 h: XTT. Type of data set: cell-based, human. How it is done: as §1
Background: Formazan colour is commonly taken as a measure of viable cells.

[4] abbreviates: 500 µM (highest concentration tested).

T1 sequence (P36186 whole entry): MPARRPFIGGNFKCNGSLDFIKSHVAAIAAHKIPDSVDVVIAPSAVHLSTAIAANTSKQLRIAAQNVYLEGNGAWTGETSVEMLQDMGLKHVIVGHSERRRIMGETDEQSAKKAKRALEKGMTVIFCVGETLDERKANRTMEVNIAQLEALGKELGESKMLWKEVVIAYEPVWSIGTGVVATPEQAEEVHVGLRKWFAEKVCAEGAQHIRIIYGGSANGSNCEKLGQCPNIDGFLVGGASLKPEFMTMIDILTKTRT

Turning to `Cc1c(OCC(F)(F)F)ccnc1C[S+]([O-])c1nc2ccccc2[nH]1` (stereo not shown) [Lansoprazole, 2-{[3-methyl-4-(2,2,2-trifluoroethoxy)pyridin-2-yl]methanesulfinyl}-1H-benzimidazole, reference compound], in the data set with HT29 cells (setting [4]), the “Cell viability decrease, HT29” value was “approximately 20%”. The midpoint of cytotoxicity with HT29 cells (XTT, 48 h), the CC50, lay at 548 µM. Moreover, the “Selectivity index (SI), CC50 HT29 / IC50 trophozoites” value with HT29 cells stood at 12. Besides, in data set [1], the half-maximal inhibitory concentration (IC50) (in general, the concentration needed to halve the response being measured) is 66 µM and the “Loss (reduction) of TPI enzyme activity” value is 100%. Moreover, the kinact/KI in data set [2] came out at 1.78 M⁻¹ s⁻¹.
With `O=[N+]([O-])c1ccc2nc([S+]([O-])Cc3ccccn3)[nH]c2c1` (stereo not shown) [O2N-BZM7, 5-nitro-2-[(pyridin-2-yl)methanesulfinyl]-1H-benzimidazole], in data set [3], the viability (usually a per cent measure of how many cells are alive, often set against a control) at 48 h, 500 µM was about 50% and half-maximal cytotoxicity (CC50 at 48 h) was put at 519 µM. Also, in the data set with HT29 cells (150 µM), the “Cell viability decrease, HT29” value is given as “around 20%”. Besides, in the data set with HT29 cells, the “Selectivity index (SI), CC50 HT29 / IC50 trophozoites” value was 37. Besides, in data set [1], the “Enhancement of TPI inactivation (IC50) with respect to BHO2” value came to 5.3 fold, the half-maximal inhibitory concentration (IC50) amounted to 12 µM and the “Loss (reduction) of TPI enzyme activity” value worked out at 100%. In data set [2], the kinact/KI was 3.2 M⁻¹ s⁻¹.
On to `COc1c(C)cnc(C[S+]([O-])c2nc3ccccc3[nH]2)c1C` (stereo not shown) [H-BZM2, 2-[(4-methoxy-3,5-dimethylpyridin-2-yl)methanesulfinyl]-1H-benzimidazole], for which the CC50 (as a rule, the concentration that lowers cell viability or growth by half) at 48 h in data set [3] is 1910 µM. In addition, in the data set with HT29 cells (setting [4]), the “Cell viability decrease, HT29” value was “approximately 20%”. For the same compound, in the data set on HT29 cells, the “Selectivity index (SI), CC50 HT29 / IC50 trophozoites” value was 53. Besides, in data set [1], the IC50 was 37 µM and the “Loss (reduction) of TPI enzyme activity” value is on record as 100%. Moreover, the kinact/KI in data set [2] worked out at 2.3 M⁻¹ s⁻¹.
For `Cc1c(OCC(F)(F)F)ccnc1C[S+]([O-])c1nc2ccc([N+](=O)[O-])cc2[nH]1` (stereo not shown) [O2N-BZM9, 2-{[3-methyl-4-(2,2,2-trifluoroethoxy)pyridin-2-yl]methanesulfinyl}-5-nitro-1H-benzimidazole], in data set [3], the viability at 48 h, 500 µM was about 50% and the CC50 at 48 h stood at 622 µM. Besides, the “Cell viability decrease, HT29” value with HT29 cells (150 µM) is given as “around 20%”. Besides, the “Selectivity index (SI), CC50 HT29 / IC50 trophozoites” value in the data set with HT29 cells was 36. In data set [1], the “Enhancement of TPI inactivation (IC50) with respect to BHO2” value was found to be 3.2 fold, the IC50 amounted to 20 µM and the “Loss (reduction) of TPI enzyme activity” value is listed as 100%. In data set [2], the kinact/KI was 2.8 M⁻¹ s⁻¹.

The values are drawn from paper PMC7504735, “Enhanced Antigiardial Effect of Omeprazole Analog Benzimidazole Compounds” (Molecules, 2020).
